# Patent US20050107386A1, “Methods of treating diseases and disorders by targeting multiple kinases” (priority 2003, published 2005)
# Tests used:
# Conditions in all cases: 3 μM; percent of control kinase activity
# [1] = test system: c-RAF(h); assay: c-RAF(h) kinase assay; format: biochemical, human
# Description: (§1) Six compounds (presumptive single agents) were tested against a panel of 50 kinases. The results are presented in Table 2; numbers for each kinase indicate the percent of control kinase activity in the presence of a 3μM concentration of the indicated agent.
# (§2) Agents that target two or more different kinases are useful in the methods of the invention as described elsewhere herein. Such compounds may be identified, and their effect on certain kinases may be identified, using the assays briefly described below in Examples 4-83. Each of these assays was carried out as described in Davies et al., Biochem. J., 351:95-105 (2000). All assays were carried out at 10 μM ATP unless otherwise noted.
# (§3) In a final reaction volume of 25 μl, c-RAF (h) (5-10 mU) is incubated with 25 mM Tris pH 7.5, 0.02 mM EGTA, 0.66 mg/ml myelin basic protein, 10 mM MgAcetate and [γ-^33P-ATP] (specific activity approx. 500 cpm/pmol, concentration as required). The reaction is initiated by the addition of Mg^2+ [γ-^33P-ATP]. After incubation for 40 minutes at room temperature, the reaction is stopped by the addition of 5 μl of a 3% phosphoric acid solution. 10 μl of the reaction is then spotted onto a P30 filtermat and washed three times for 5 minutes in 75 mM phosphoric acid and once in methanol prior to drying and scintillation counting.
# [2] = target: PAK2(h) (Homo sapiens, UniProt Q13177); assay: PAK2(h) kinase assay; format: biochemical
# Description: as §1, §2
# as §3, with “μl, PAK2(h)” for “μl, c-RAF (h)”, “with 8” for “with 25”, “mM MOPS” for “mM Tris”, “pH 7.0, 0.2” for “pH 7.5, 0.02”, “mM EDTA, 30 μM […] (SEQ ID NO:8),” for “mM EGTA, 0.66 mg/ml myelin basic protein,”
# [3] = target: CHK2(h) (Homo sapiens, UniProt O96017); assay: CHK2(h) kinase assay; format: biochemical
# Description: as §1, §2
# as §3, with “μl, CHK2” for “μl, c-RAF”, “with 8” for “with 25”, “mM MOPS” for “mM Tris”, “pH 7.0,0.2” for “pH 7.5, 0.02”, “mM EDTA, 200 μM […] (SEQ ID NO:5),” for “mM EGTA, 0.66 mg/ml myelin basic protein,”
# [4] = target: CDK3/cyclinE(h) (Homo sapiens, UniProt Q00526); assay: CDK3/cyclinE(h) kinase assay; format: biochemical
# Description: as §1, §2
# as §3, with “μl, CDK3/cyclinE” for “μl, c-RAF”, “with 8” for “with 25”, “mM MOPS” for “mM Tris”, “pH 7.0, 0.2” for “pH 7.5, 0.02”, “mM EDTA, 0.1” for “mM EGTA, 0.66”, “mg/ml histone H1,” for “mg/ml myelin basic protein,”
# [5] = target: MAPKAP-K2(h) (Homo sapiens, UniProt P49137); assay: MAPKAP-K2(h) kinase assay; format: biochemical
# Description: as §1, §2
# as §3, with “μl, MAPKAP-K2” for “μl, c-RAF”, “with 50” for “with 25”, “mM Na-β-glycerophosphate” for “mM Tris”, “7.5, 0.1” for “7.5, 0.02”, “EGTA, 30 μM […] (SEQ ID NO:11),” for “EGTA, 0.66 mg/ml myelin basic protein,”, “[γ-^33P-ATP] (Specific” for “[γ-^33P-ATP] (specific”
# [6] = target: Lyn(h) (Homo sapiens, UniProt P07948); assay: Lyn(h) kinase assay; format: biochemical
# [7] = target: GSK3α(h) (Homo sapiens, UniProt P49840); assay: GSK3α(h) kinase assay; format: biochemical
# Description: as §1, §2
# [8] = test system: CaMKII(r); assay: CaMKII(r) kinase assay; format: biochemical, rat
# Description: as §1, §2
# as §3, with “μl, CaMKII (r)” for “μl, c-RAF (h)”, “with 40” for “with 25”, “mM Hepes” for “mM Tris”, “pH 7.4, 5” for “pH 7.5, 0.02”, “mM CaCl2, 30 μg/ml calmodulin, 30 μM […] (SEQ ID NO:11),” for “mM EGTA, 0.66 mg/ml myelin basic protein,”
# [9] = test system: AMPK(r); assay: AMPK(r) kinase assay; format: biochemical, rat
# Description: as §1, §2
# as §3, with “μl, AMPK(r)” for “μl, c-RAF (h)”, “with 50” for “with 25”, “mM Hepes” for “mM Tris”, “pH 7.4, 1” for “pH 7.5, 0.02”, “mM DTT, 0.02% Brij-35, 200 μM AMP, 200 μM […] (SEQ ID NO:4),” for “mM EGTA, 0.66 mg/ml myelin basic protein,”, “[γ-^33P-ATP] (Specific” for “[γ-^33P-ATP] (specific”
# Chain of Lyn(h) (P07948 2-512 limits assumed): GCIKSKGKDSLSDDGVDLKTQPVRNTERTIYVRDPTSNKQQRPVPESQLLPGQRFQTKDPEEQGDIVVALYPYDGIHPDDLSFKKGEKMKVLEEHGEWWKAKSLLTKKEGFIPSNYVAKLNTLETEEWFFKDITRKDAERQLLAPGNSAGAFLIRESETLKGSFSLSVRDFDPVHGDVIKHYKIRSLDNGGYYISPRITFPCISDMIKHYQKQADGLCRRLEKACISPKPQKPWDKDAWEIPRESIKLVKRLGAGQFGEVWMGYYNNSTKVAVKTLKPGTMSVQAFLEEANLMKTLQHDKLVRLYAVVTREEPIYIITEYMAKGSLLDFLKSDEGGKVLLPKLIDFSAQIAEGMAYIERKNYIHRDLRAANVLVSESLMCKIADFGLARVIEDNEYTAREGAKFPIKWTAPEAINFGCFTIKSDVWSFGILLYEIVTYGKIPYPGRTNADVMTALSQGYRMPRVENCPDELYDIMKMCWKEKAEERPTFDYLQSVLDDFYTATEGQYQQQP
# Chain of GSK3α(h) (P49840 whole entry): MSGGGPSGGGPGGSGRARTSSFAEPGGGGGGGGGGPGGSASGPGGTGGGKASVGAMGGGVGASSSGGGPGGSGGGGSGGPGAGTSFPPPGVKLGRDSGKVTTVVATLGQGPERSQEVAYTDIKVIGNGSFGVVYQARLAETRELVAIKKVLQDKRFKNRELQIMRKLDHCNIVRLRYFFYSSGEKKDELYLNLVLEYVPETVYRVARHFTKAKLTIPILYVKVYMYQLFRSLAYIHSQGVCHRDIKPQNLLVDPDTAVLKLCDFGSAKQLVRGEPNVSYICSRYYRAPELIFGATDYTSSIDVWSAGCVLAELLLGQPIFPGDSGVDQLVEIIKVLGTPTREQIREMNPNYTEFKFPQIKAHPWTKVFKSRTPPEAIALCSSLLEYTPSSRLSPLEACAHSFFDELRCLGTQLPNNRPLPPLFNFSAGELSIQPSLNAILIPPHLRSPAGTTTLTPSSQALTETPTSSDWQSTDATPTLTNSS
# Chain of CDK3/cyclinE(h) (Q00526 whole entry): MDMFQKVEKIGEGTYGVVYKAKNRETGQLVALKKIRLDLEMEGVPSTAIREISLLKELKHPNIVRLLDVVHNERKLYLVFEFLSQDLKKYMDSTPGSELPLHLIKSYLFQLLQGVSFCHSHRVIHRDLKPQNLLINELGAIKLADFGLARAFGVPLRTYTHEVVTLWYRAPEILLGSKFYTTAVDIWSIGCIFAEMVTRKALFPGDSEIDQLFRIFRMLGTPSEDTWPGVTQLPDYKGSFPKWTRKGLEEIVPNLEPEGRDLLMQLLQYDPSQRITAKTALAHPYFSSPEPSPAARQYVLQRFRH
# Chain of CDK3/cyclinE(h) (P24864 whole entry partner): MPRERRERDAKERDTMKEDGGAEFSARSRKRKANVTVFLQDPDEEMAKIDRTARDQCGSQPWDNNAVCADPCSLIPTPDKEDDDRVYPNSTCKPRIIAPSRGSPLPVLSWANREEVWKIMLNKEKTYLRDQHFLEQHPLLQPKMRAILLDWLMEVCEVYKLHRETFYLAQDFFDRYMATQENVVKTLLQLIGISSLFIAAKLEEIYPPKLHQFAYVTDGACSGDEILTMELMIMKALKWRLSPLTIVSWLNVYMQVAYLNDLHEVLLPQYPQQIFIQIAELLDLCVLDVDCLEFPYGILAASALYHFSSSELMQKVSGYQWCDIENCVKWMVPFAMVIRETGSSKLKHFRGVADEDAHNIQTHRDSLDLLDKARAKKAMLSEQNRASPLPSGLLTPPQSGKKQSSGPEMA
# Chain of CHK2(h) (O96017 whole entry): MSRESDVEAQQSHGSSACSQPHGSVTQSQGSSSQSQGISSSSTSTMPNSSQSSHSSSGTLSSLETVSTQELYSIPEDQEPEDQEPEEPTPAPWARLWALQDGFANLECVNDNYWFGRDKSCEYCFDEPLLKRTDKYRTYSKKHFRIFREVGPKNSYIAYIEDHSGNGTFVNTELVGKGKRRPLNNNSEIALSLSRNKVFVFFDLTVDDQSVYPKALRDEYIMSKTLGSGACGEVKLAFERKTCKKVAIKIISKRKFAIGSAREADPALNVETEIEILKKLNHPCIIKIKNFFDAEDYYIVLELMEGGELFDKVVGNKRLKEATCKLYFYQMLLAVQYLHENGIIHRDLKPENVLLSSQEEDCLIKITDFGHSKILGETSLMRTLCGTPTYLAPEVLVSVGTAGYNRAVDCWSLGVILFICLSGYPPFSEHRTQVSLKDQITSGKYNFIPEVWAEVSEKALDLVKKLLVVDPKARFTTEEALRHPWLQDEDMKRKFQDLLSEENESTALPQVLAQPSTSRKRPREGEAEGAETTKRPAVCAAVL
# Chain of PAK2(h) (Q13177 whole entry): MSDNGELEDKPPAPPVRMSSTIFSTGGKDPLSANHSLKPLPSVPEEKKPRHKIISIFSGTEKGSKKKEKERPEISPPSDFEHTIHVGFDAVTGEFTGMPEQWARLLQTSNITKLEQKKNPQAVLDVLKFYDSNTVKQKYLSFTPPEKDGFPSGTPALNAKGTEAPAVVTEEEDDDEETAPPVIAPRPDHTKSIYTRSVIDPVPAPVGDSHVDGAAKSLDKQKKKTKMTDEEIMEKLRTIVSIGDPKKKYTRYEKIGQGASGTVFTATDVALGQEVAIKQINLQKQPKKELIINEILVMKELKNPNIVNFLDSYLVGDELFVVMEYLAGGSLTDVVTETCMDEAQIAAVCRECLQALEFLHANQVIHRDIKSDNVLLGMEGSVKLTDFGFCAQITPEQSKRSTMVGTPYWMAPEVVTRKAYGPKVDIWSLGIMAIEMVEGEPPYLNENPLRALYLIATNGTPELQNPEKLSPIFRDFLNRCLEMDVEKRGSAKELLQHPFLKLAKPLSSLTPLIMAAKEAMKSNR
# Chain of MAPKAP-K2(h) (P49137 whole entry): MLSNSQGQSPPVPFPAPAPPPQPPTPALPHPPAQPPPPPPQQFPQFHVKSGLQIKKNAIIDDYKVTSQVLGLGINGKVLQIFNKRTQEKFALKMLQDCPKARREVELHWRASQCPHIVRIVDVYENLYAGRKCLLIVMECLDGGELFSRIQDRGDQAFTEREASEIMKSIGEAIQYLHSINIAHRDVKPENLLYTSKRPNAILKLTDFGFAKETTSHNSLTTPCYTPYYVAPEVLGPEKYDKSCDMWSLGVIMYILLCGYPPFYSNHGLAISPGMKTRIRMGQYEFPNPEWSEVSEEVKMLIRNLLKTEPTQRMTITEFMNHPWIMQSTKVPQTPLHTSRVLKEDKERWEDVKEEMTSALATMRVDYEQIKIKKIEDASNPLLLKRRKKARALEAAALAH
SMILES,"Inhibitory activity (% of control), c-RAF(h) [1]","Inhibitory activity (% of control), PAK2(h) [2]","Inhibitory activity (% of control), CHK2(h) [3]","Inhibitory activity (% of control), CDK3/cyclinE(h) [4]","Inhibitory activity (% of control), MAPKAP-K2(h) [5]","Inhibitory activity (% of control), Lyn(h) [6]","Inhibitory activity (% of control), GSK3α(h) [7]","Inhibitory activity (% of control), CaMKII(r) [8]","Inhibitory activity (% of control), AMPK(r) [9]"
"COc1ccc2cc(-c3n[nH]c4ccc(-c5n[nH]c(CN6CCOCC6)n5)cc34)ccc2c1 [CC001, 3-(6-Methoxynaphthalen-2-yl)-5-(5-Morpholin-4-Ylmethyl-1H-[1,2,4]Triazol-3-yl)-1H-Indazole]",99 % of control,68 % of control,2 % of control,31 % of control,97 % of control,5 % of control,15 % of control,64 % of control,52 % of control
"CC(C)(C)Cc1nc(-c2ccc3[nH]nc(-c4ccc5cc(OCc6ccccn6)ccc5c4)c3c2)n[nH]1 [CC004, 5-[5-(2,2-Dimethyl-propyl)-1H-[1,2,4]triazol-3-yl]-3-[6-(pyridine-2-ylmethoxy)-naphthalen-2-yl]-1H-indazole]",85 % of control,62 % of control,7 % of control,39 % of control,108 % of control,62 % of control,65 % of control,52 % of control,54 % of control

# The next lines start with the values.
"Inhibitory activity (% of control), c-RAF(h) [1]","Inhibitory activity (% of control), PAK2(h) [2]","Inhibitory activity (% of control), CHK2(h) [3]","Inhibitory activity (% of control), CDK3/cyclinE(h) [4]","Inhibitory activity (% of control), MAPKAP-K2(h) [5]","Inhibitory activity (% of control), Lyn(h) [6]","Inhibitory activity (% of control), GSK3α(h) [7]","Inhibitory activity (% of control), CaMKII(r) [8]","Inhibitory activity (% of control), AMPK(r) [9]",SMILES
96 % of control,21 % of control,1 % of control,36 % of control,72 % of control,2 % of control,38 % of control,26 % of control,4 % of control,"CC(C)Cc1nc(-c2ccc3[nH]nc(-c4ccc5cc(OCCN6CCCC6)ccc5c4)c3c2)n[nH]1 [CC002, 5-(5-Isobutyl-1H-[1,2,4]Triazol-3-yl)-3-[6-(2-Pyrrolidin-1-yl-Ethoxy)-Naphthalen-2-yl]-1H-Indazole]"
99 % of control,56 % of control,20 % of control,15 % of control,96 % of control,23 % of control,38 % of control,82 % of control,74 % of control,"Fc1ccc(-c2n[nH]c3ccc(-c4n[nH]c(C5CCCC5)n4)cc23)cc1 [CC006, 5-(5-Cyclopentyl-1H-[1,2,4]triazol-3-yl)-3-(4-fluoro-phenyl)-1H-indazole, reference compound]"
100 % of control,13 % of control,1 % of control,25 % of control,56 % of control,2 % of control,35 % of control,4 % of control,2 % of control,"CCN1CCC[C@H]1COc1ccc2cc(-c3n[nH]c4ccc(-c5nc(CC(C)(C)C)n[nH]5)cc34)ccc2c1 [CC005, 2-[((2s)-1-ethylpyrrolidin-2-yl)methoxy]-6-{5-[3-(2,2-Dimethylpropyl)(1H-1,2,4,-triazol-5-yl)](1H-indazol-3-yl)}naphthalene]"
92 % of control,86 % of control,6 % of control,73 % of control,86 % of control,61 % of control,18 % of control,68 % of control,74 % of control,"O=C(NC1CCCC1)c1cccc(-c2n[nH]c3ccc(-c4nc[nH]n4)cc23)c1 [CC007, 3-(5-(1H-1,2,4-triazol-3-yl)(1H-indazol-3-yl))phenyl-N-cyclopentylcarboxamide, reference compound]"
